Like-named read-outs stand apart in the source and are kept apart here. Where a SMILES comes first, the peptide text is derived from it. Bridges are numbered along the chain shown (N, C = ends).
Assays:
SHIV = conditions: macaques; ref [61]; cited from earlier work
From the text: Moreover, HD5 may share the mechanism of action of cyanovirin-N, a lectin-like protein that binds to mannose moieties in gp120 and of mAb IgG1b12, with which it competes for the same binding site on CD4 receptor. Both of these virus-targeting entry-inhibitors have been reported to protect macaques from vaginal SHIV ...

HIV-1 envelope = conditions: envelope not stated
[1] = system: primary isolate HIV-1J176 in purified CD4+ T lymphocytes
Protocol: Viral stocks were titrated on activated human CD4^+ T cells.
PBMCs were isolated from healthy blood donors by standard Ficoll-HyPaque (Pharmacia, Uppsala, Sweden) density gradient centrifugation from concentrated leukocytes of healthy blood donors and stimulated with 5 µg/ml PHA (Sigma, St. Louis, MO) in complete RPMI medium supplemented with 10% FBS and 50 U/ml recombinant IL-2 (Proleukin; Chiron Corporation, Emeryville, CA) (RPMI-10). After 3 days in culture, CD4^+ T cell population was enriched by negative immunomagnetic selection using Dynabeads M-450 (Invitrogen Carlsbad, CA) coated with monoclonal antibodies to CD8, CD14, CD19 and CD56 (Sigma, St. Louis, MO) according to the manufacturer’s protocol. Infection was carried out by spinoculation for 1.5 hours as previously described [32] with minor modifications. […]
The HIV-1 p24 Ag concentrations in the culture supernatants were determined by enzyme-linked immunosorbent assay (ELISA) at days 4 and 6 post-infection as previously described [68]. […] Bound p24 Ag was then detected using an alkaline phosphatase–conjugated anti-p24 monoclonal antibody (BC 1071-AP; Aalto Bio Reagents) and the AMPAK ELISA amplification system (DAKO A/S, Glostrup, Denmark).

gp120/CD4 = gp120/CD4 (Homo sapiens, UniProt P01730); experiment: biochemical
Protocol: (§1) Flat-bottom, 96-well MaxiSorp plates (NUNC, Roskilde, Denmark) were coated with recombinant sCD4 (5 µg/well) or HIV-1BaL gp120 (2 µg/well) in phosphate-buffered saline (PBS) for 18 hrs at 4°C. Bovine serum albumin (BSA) 3% was used for blocking the plates. Antibodies were added in 100 µl PBS+0.05%BSA and incubated for 1 hr at 37°C, after which the plate was washed and incubated for an additional hour at room temperature with the secondary antibody. Peroxidase-conjugated, affinity-purified goat-anti-mouse IgG or goat-anti-human IgG (Dako, Glostrup, Denmark) were used as secondary antibodies. […] The specific signal was calculated by subtracting background values obtained from replicate wells containing all the reagents except the specific ligand for each assay. Binding of mAbs 17b and 48d, directed to CD4-induced epitopes, was performed after preincubation of immobilized gp120 with sCD4 (2 µg/well) in PBS for 20 min at 37°C [65].

[2] = molecular target: recombinant soluble CD4 (sCD4) (Homo sapiens, UniProt P01730); experiment: biochemical
Protocol: as §1

X4 HIV-1 envelopes = conditions: read-out: mean IC50, envelope-mediated fusion, PM1 effector cells, NIH-3T3 CD4/CXCR4 target cells, 2 h at 37°C, medium without FCS, β-galactosidase, 3 experiments
[3] = molecular target: recombinant human soluble CD4 (human); experiment: ELISA; competition: increasing HD5 against anti-CD4 mAb (Leu3a; OKT4) for binding to plastic-immobilised sCD4 (coated at 5 µg/mL); HD5 added before the mAb and kept in the wells
[4] = molecular target: recombinant HIV-1 gp120 from isolate BaL (HIV-1 isolate BaL); experiment: ELISA; competition: increasing HD5 against the binding of sCD4 and gp120; the text has gp120 on plastic and sCD4 in solution, the legend has sCD4 coated at 5 µg/mL and gp120BaL in solution; HD5 added first and kept in the wells
[5] = molecular target: recombinant HIV-1 gp120 from isolate SF162 (HIV-1 isolate SF162); experiment: ELISA; competition: increasing HD5 against mAb IgG1b12 (5 µg/mL) for binding to plastic-immobilised recombinant gp120; PBS + 0.05% BSA, 1 hr at 37°C

## cyanovirin-N
SHIV
  protection from vaginal SHIV-challenge: protect macaques from vaginal SHIV-challenge

## CC[C@H](C)[C@@H]1NC(=O)[C@H](CCC(=O)O)NC(=O)[C@@H]2CSSC[C@@H]3NC(=O)[C@H](Cc4ccc(O)cc4)NC(=O)[C@@H](NC(=O)[C@@H](NC(=O)[C@H](C)N)[C@@H](C)O)CSSC[C@@H](C(=O)N[C@@H](CCCNC(=N)N)C(=O)O)NC(=O)[C@H](CSSC[C@H](NC(=O)[C@H](CCCNC(=N)N)NC(=O)CNC(=O)[C@H]([C@@H](C)O)NC(=O)[C@H](CCCNC(=N)N)NC3=O)C(=O)N[C@@H](C)C(=O)N[C@@H]([C@@H](C)O)C(=O)N[C@@H](CCCNC(=N)N)C(=O)N[C@@H](CCC(=O)O)C(=O)N[C@@H](CO)C(=O)N[C@@H](CC(C)C)C(=O)N[C@@H](CO)C(=O)NCC(=O)N[C@@H](C(C)C)C(=O)N2)NC(=O)[C@H](CC(C)C)NC(=O)[C@H](CCCNC(=N)N)NC(=O)[C@H](Cc2ccc(O)cc2)NC(=O)[C@H](CC(C)C)NC(=O)[C@H](CCCNC(=N)N)NC(=O)CNC(=O)[C@H](CO)NC1=O [HD5] (H-ATCYCRTGRCATRESLSGVCEISGRLYRLCCR-OH; disulfide 3-31, 5-20, 10-30)
HIV-1 envelope; read-out: IC50, fusion with FBS, with FBS (2.5% vol/vol)
  IC50: 56000 nM
HIV-1 envelope; read-out: IC50, fusion without FBS, without FBS
  IC50: 2300 nM
[1]; primary isolate 1J176 in purified CD4+ T lymphocytes, 1 h
  IC50: 60 nM
[1]; read-out: half-maximal inhibitory concentration (IC50), HIV-1 replication, HIV-1J176, no serum (RPMI-0.3-ITS: 0.3% human AB serum, ITS, rIL-2 50 U/ml), virions pre-incubated with HD5 1 h at 37°C, spinoculation 1.5 h, p24 ELISA day 6, mean of 3 experiments in triplicate
  IC50: 400 nM
gp120/CD4
  IC50: 900 nM
[2]
  IC50: 1800 nM
X4 HIV-1 envelopes
  IC50: 2770 ± 380 nM

## ATCYCRTGRCATRESLSGVCEISGRLYRLCCR [human α-defensin-5]
[3]
  IC50: 1800 nM
[4]
  IC50: 900 nM
[5]
  IC50: 6500 nM

— PMC3459904, “Inhibition of HIV-1 Infection by Human α-Defensin-5, a Natural Antimicrobial Peptide Expressed in the Genital and Intestinal Mucosae” (PLoS ONE, 2012)
